Experimental data: patent publication US20250163052A1, “cGAS INHIBITORS AND USES THEREOF” (Cornell University, priority 2022, published 2025)

Key:
[1] = target: h-cGAS (Homo sapiens, UniProt Q8N884); assay: Cell-free human cGAS enzyme inhibition assay (ATP depletion, Kinase-Glo Max); type: biochemical; settings: 3 h; for inhibition at 1 µM: read-out: h-cGAS, conc. 1 μM; for inhibition at 10 µM: read-out: h-cGAS, conc. 10 μM
Method: (§1) Cell-free mouse and human cGAS enzyme inhibition assay (Table 2). Activity of all compounds (in Table 1) against m-cGAS (30 nM) and or h-cGAS, (100 nM) was determined by measuring the conversion of ATP and GTP (100 μM each) to cGAMP in the presence of dsDNA (5 ug/mL) in a reaction buffer composed of Tris-HCl (20 mM, pH7.4), NaCl (150 mM), MnCl2 (0.2 mM, h-cGAS) or MgCl2 (5 mM, m-cGAS) and Tween-20 (0.01%), and the remaining ATP concentration using Kinase-Glo®Max Luminescent Kinase Assay (Promega, Madison, WI), as described (Lama, et. al., 2019). Briefly, 10 μl of a master mix of 0.4 mM ATP, 0.4 mM GTP, 0.02 mg/mL dsDNA in the reaction buffer supplemented with 2 mM DTT was added to reaction wells containing TDI-6570 or TDI-8246 (2× of the desired concentration) in the same buffer ([…]) using a Thermo 8-channel Multidrop Combi dispenser. Next, 10 μl of a 4×m-cGAS (0.120 μM) or h-cGAS (0.4 μM) solution in the reaction buffer supplemented with 2 mM DTT was added to appropriate wells. Similar sets of reactions without cGAS or the inhibitor was set by adding the buffer alone. The reactions with the plates sealed were incubated at 37° C. (1 hour for m-cGAS and 3 hours for h-cGAS) and stopped by addition of 40 μl of the Kinase-Glo®Max. The luminescence was recorded in relative light units (RLUs) using a Biotek Synergy H1 Hybrid plate reader (BioTek, Winooski, VT). […] All reactions were run in triplicates and calculated using GraphPad Prism 9. The values represent mean IC50±S.D.

[2] = target: m-cGAS (Mus musculus, UniProt Q8C6L5); assay: Cell-free mouse cGAS enzyme inhibition assay (ATP depletion, Kinase-Glo Max); type: biochemical; settings: 1 h; for inhibition at 10 µM: read-out: m-cGAS, conc. 10 μM; for inhibition at 1 µM: read-out: m-cGAS, conc. 1 μM
Method: as §1

[3] = test system: IFNB; assay: THP1-Dual cells transfected with DNA, Ifnb expression (Quantiluc); type: cell-based; settings: Homo sapiens; for inhibition at 10 µM: THP-1, 10 μM; for inhibition at 30 µM: THP-1, 30 μM
Method: (§2) Evaluation of active cGAS inhibitors in THP1 cells (Table 3). Cellular activity of all compounds (in Table 3) was determined using THP1-Dual™ cells as described (Lama et. al., 2019). THP1-Dual™ cells (Invivogen) (50000 cells in 100 μl media) were seeded into each well of a 96-well plate and treated with compounds at various dilution for 4 hours. Subsequently, cells were transfected with DNA (2 ug/ml) and lipofectamine and incubate the cells were incubated overnight. Ifnb expression was measured in cell supernatant using Quantiluc, nfkb expression was determined using Quantiblue, and cell viability using Promega® CellTiter-Glo®.

[4] = test system: NFkB-SEAP; assay: THP1-Dual cells transfected with DNA, nfkb expression (Quantiblue); type: cell-based; settings: Homo sapiens; for inhibition at 10 µM: THP-1, 10 μM; for inhibition at 30 µM: THP-1, 30 μM
Method: as §2

[5] = test system: THP1 cells; assay: THP1-Dual cells, cell viability (CellTiter-Glo); type: cell-based
Method: as §2

Chain of h-cGAS (Q8N884 whole entry): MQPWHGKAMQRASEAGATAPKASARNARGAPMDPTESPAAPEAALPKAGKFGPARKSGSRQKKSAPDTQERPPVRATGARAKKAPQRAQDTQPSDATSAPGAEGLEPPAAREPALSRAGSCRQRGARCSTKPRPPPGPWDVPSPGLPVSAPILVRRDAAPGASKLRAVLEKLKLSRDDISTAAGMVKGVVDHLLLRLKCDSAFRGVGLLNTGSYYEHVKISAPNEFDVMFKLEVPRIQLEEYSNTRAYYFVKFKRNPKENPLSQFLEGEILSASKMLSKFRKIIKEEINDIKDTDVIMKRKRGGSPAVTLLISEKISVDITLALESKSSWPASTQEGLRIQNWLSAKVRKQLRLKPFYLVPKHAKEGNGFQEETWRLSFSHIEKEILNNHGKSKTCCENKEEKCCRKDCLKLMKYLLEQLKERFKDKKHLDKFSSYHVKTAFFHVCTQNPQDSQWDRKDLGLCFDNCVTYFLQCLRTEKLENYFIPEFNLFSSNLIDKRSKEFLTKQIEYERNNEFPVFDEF
Chain of m-cGAS (Q8C6L5 whole entry): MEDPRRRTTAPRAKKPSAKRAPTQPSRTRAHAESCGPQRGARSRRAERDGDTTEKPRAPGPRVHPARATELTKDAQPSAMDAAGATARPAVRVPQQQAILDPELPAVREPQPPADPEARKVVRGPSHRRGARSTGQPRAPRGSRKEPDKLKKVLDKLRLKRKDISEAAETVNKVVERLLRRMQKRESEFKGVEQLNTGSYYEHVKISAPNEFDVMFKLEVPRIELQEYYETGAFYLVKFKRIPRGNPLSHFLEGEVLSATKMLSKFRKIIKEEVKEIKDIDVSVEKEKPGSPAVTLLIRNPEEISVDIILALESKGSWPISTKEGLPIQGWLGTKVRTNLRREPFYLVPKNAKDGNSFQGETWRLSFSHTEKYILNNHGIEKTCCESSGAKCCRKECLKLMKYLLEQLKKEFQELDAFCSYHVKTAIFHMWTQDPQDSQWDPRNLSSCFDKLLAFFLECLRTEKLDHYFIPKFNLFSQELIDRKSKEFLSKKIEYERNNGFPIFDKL

| SMILES | inhibition at 1 µM [1] [%] | inhibition at 10 µM [1] [%] | inhibition at 10 µM [2] [%] | inhibition at 1 µM [2] [%] | inhibition at 10 µM [3] [%] | inhibition at 30 µM [3] [%] | inhibition at 10 µM [4] [%] | inhibition at 30 µM [4] [%] | Cell viability 10 μM [5] | Cell viability 30 μM [5] |
| --- | --- | --- | --- | --- | --- | --- | --- | --- | --- | --- |
| Cn1c2c(c3c(O)cc(Cl)c(F)c31)CN(C(=O)CO)CC2 [Compound 1, 1-(7-chloro-6-fluoro-9-hydroxy-5-methyl-3,4-dihydro-1H-pyrido[4,3-b]indol-2-yl)-2-hydroxy-ethanone] | 0 to 24 | 75 to 100 | 75 to 100 |  | < 24 | < 24 | < 24 | < 24 | +++ (+, ++, and +++ mean the compound respectively shows 25-49%; 50-74%; or 75-100% viability to cells) | +++ (+, ++, and +++ mean the compound respectively shows 25-49%; 50-74%; or 75-100% viability to cells) |
| Cn1c2c(c3c(-c4ccc(O)nc4)cc(Cl)c(F)c31)CN(C(=O)CO)CC2 [Compound 2] |  | 0 to 24 | 0 to 24 |  |  |  |  |  |  |  |
| O=C(CO)N1CCc2[nH]c3c(Cl)c(Cl)cc(O)c3c2C1 [Compound 3] | 50 to 74 | 75 to 100 | 75 to 100 | 75 to 100 | < 24 |  | < 24 | < 24 | +++ (+, ++, and +++ mean the compound respectively shows 25-49%; 50-74%; or 75-100% viability to cells) | +++ (+, ++, and +++ mean the compound respectively shows 25-49%; 50-74%; or 75-100% viability to cells) |
| CC(O)C(=O)N1CCc2c(c3c(-c4ccn(C)n4)cc(Cl)c(Cl)c3n2C)C1 (centres unmarked) [Compound 4] | 25 to 49 | 75 to 100 | 0 to 24 |  | < 24 | 50 to 74 | < 24 | 25 to 49 | +++ (+, ++, and +++ mean the compound respectively shows 25-49%; 50-74%; or 75-100% viability to cells) | +++ (+, ++, and +++ mean the compound respectively shows 25-49%; 50-74%; or 75-100% viability to cells) |
| CC(C)(C)OC(=O)N1CCCC1C(=O)N1CCc2[nH]c3c(Cl)c(Cl)cc(-c4ccc(N)nc4)c3c2C1 (centres unmarked) [Compound 13] |  | 0 to 24 | 0 to 24 |  |  |  |  |  |  |  |
| Cn1c2c(c3c(-c4ccc(N)nc4)cc(Cl)c(Cl)c31)CN(C(=O)C1CCCN1C(=O)OC(C)(C)C)CC2 (centres unmarked) [Compound 14] |  | 0 to 24 | 0 to 24 |  |  |  |  |  |  |  |
| Cn1c2c(c3c(-c4ccn[nH]4)cc(Cl)c(Cl)c31)CN(C(=O)C1CCCN1C(=O)OC(C)(C)C)CC2 (centres unmarked) [Compound 15] |  | 0 to 24 | 0 to 24 |  |  |  |  |  |  |  |
| Cn1c2c(c3c(-c4ccn[nH]4)cc(Cl)c(Cl)c31)CN(C(=O)C1CCCN1)CC2 (centres unmarked) [Compound 18] |  | 0 to 24 | 0 to 24 |  |  |  |  |  |  |  |
| Nc1ccc(-c2cc(Cl)c(Cl)c3[nH]c4c(c23)CN(C(=O)C2(N)CC2)CC4)cn1 [Compound 19] |  | 0 to 24 | 0 to 24 |  |  |  |  |  |  |  |
| Nc1ccc(-c2cc(Cl)c(Cl)c3oc4c(c23)CN(C(=O)CO)CC4)cn1 [Compound 26] | 50 to 74 | 75 to 100 | 25 to 49 |  | 50 to 74 | 75 to 100 |  |  | +++ (+, ++, and +++ mean the compound respectively shows 25-49%; 50-74%; or 75-100% viability to cells) | +++ (+, ++, and +++ mean the compound respectively shows 25-49%; 50-74%; or 75-100% viability to cells) |
| Cn1ccc(-c2cc(Cl)c(Cl)c3oc4c(c23)CCN(C(=O)CN)C4)n1 [Compound 41] | 50 to 74 | 75 to 100 |  |  | 50 to 74 | 75 to 100 |  |  | +++ (+, ++, and +++ mean the compound respectively shows 25-49%; 50-74%; or 75-100% viability to cells) | − (Cell viability <24%, in THP1 cells is expressed as “−”) |
| Cn1ccc(-c2cc(Cl)c(Cl)c3sc4c(c23)CN(C(=O)CO)CC4)n1 [Compound 46] | 50 to 74 | 75 to 100 | 0 to 24 |  | 25 to 49 | 75 to 100 |  |  | +++ (+, ++, and +++ mean the compound respectively shows 25-49%; 50-74%; or 75-100% viability to cells) | ++ (+, ++, and +++ mean the compound respectively shows 25-49%; 50-74%; or 75-100% viability to cells) |

Continued, in another order:

| inhibition at 1 µM [1] [%] | inhibition at 10 µM [1] [%] | inhibition at 10 µM [2] [%] | inhibition at 1 µM [2] [%] | SMILES | inhibition at 10 µM [3] [%] | inhibition at 30 µM [3] [%] | inhibition at 10 µM [4] [%] | inhibition at 30 µM [4] [%] | Cell viability 10 μM [5] | Cell viability 30 μM [5] |
| --- | --- | --- | --- | --- | --- | --- | --- | --- | --- | --- |
| 0 to 24 | 50 to 74 | 50 to 74 | 0 to 24 | O=C(CO)N1CCc2sc3c(Cl)c(Cl)cc(-c4cncnc4)c3c2C1 [Compound 47] |  |  |  |  |  |  |
|  | 0 to 24 | 25 to 49 |  | Nc1ccc(-c2cc(Cl)c(Cl)c3sc4c(c23)CN(C(=O)CO)CC4)cn1 [Compound 49] |  |  |  |  |  |  |
|  | 0 to 24 | 0 to 24 |  | O=C(CO)N1CCc2sc3c(Cl)c(Cl)cc(-c4cc[nH]n4)c3c2C1 [Compound 50] |  |  |  |  |  |  |
| 0 to 24 | 25 to 49 | 0 to 24 |  | O=C(CO)N1CCc2sc3c(Cl)c(Cl)cc(-c4cn[nH]c4)c3c2C1 [Compound 51] | 25 to 49 | 75 to 100 |  |  | +++ (+, ++, and +++ mean the compound respectively shows 25-49%; 50-74%; or 75-100% viability to cells) | +++ (+, ++, and +++ mean the compound respectively shows 25-49%; 50-74%; or 75-100% viability to cells) |
| 0 to 24 | 50 to 74 | 0 to 24 |  | O=C(CO)N1CCc2sc3c(Cl)c(Cl)cc(-c4ccco4)c3c2C1 [Compound 52] | 25 to 49 | 75 to 100 |  |  | +++ (+, ++, and +++ mean the compound respectively shows 25-49%; 50-74%; or 75-100% viability to cells) | +++ (+, ++, and +++ mean the compound respectively shows 25-49%; 50-74%; or 75-100% viability to cells) |
|  | 0 to 24 | 0 to 24 |  | CC(C)(N)C(=O)N1CCc2sc3c(Cl)c(Cl)cc(-c4cc[nH]n4)c3c2C1 [Compound 55] |  |  |  |  |  |  |
|  | 50 to 74 | 0 to 24 |  | CC(C)(N)C(=O)N1CCc2sc3c(Cl)c(Cl)cc(-c4ccc(N)nc4)c3c2C1 [Compound 56] | 75 to 100 | 75 to 100 |  |  | + (+, ++, and +++ mean the compound respectively shows 25-49%; 50-74%; or 75-100% viability to cells) | − (Cell viability <24%, in THP1 cells is expressed as “−”) |
|  | 50 to 74 | 0 to 24 |  | Nc1ccc(-c2cc(Cl)c(Cl)c3sc4c(c23)CN(C(=O)[C@H]2CCCN2)CC4)cn1 [Compound 57] | 75 to 100 | 75 to 100 |  |  | − (Cell viability <24%, in THP1 cells is expressed as “−”) | − (Cell viability <24%, in THP1 cells is expressed as “−”) |
| 0 to 24 | 50 to 74 | 75 to 100 |  | O=C(CO)N1CCc2c(sc3c(Cl)c(Cl)ccc23)C1 [Compound 58] |  |  |  |  |  |  |
|  | 25 to 49 | 50 to 74 | 0 to 24 | Cn1ccc(-c2cc(Cl)c(Cl)c3sc4c(c23)CCN(C(=O)CO)C4)n1 [Compound 60] |  |  |  |  |  |  |
|  | 25 to 49 | 75 to 100 | 0 to 24 | O=C(CO)N1CCc2c(sc3c(Cl)c(Cl)cc(-c4cncnc4)c23)C1 [Compound 65] |  |  |  |  |  |  |
| 0 to 24 | 50 to 74 |  |  | CC(C)(N)C(=O)N1CCc2c(sc3c(Cl)c(Cl)cc(-c4cn[nH]c4)c23)C1 [Compound 85] | 75 to 100 | 75 to 100 |  |  | + (+, ++, and +++ mean the compound respectively shows 25-49%; 50-74%; or 75-100% viability to cells) | − (Cell viability <24%, in THP1 cells is expressed as “−”) |
|  | 0 to 24 | 0 to 24 |  | O=C(CO)N1CCc2nc3c(Cl)c(Cl)cc(-c4cncnc4)n3c2C1 [Compound 98] |  |  |  |  |  |  |
|  | 0 to 24 | 0 to 24 |  | NCC(=O)N1CCc2nc3c(Cl)c(Cl)cc(-c4cncnc4)n3c2C1 [Compound 100] |  |  |  |  |  |  |
|  | 0 to 24 | 0 to 24 |  | Cn1cc(-c2cc(Cl)c(Cl)c3nc4c(n23)CN(C(=O)CN)CC4)cn1 [Compound 101] |  |  |  |  |  |  |
